Source: patent US7638496B2 (priority 2000, dated 2009)

How the values were obtained:
PTV (Adames strain) = experiment: PTV infection in C57BL/6 mice in vivo; conditions: 24 h post infection by PTV
Procedure: For 24 h post infection by PTV in vivo the minimum effective s.c. dose of 32 mg/kg for ribavirin and for viramidine was 96 mg/kg given s.c. b.i.d for 5 days. For 24 h post infection by PTV in vivo the minimum effective p.o. dose of 20 mg/kg for ribavirin and for viramidine was 40 mg/kg given p.o. b.i.d for 5 days.

IMP dehydrogenease = conditions: cited from earlier work

Structure (SMILES): NC(=O)c1ncn([C@@H]2O[C@H](CO)[C@@H](O)[C@H]2O)n1 [Ribavirin, 1-β-D-ribofuranosyl-1,2,4-triazole-3-carboxamide]
- minimum effective p.o. dose (PTV (Adames strain); p.o. b.i.d for 5 days): 20 mg/kg
- minimum effective s.c. dose (PTV (Adames strain); s.c. b.i.d for 5 days): 32 mg/kg
- IMP dehydrogenase inhibition (IMP dehydrogenease): inhibitor of IMP dehydrogenease
